{
  "source": "BindingDB's records for patent US10676479",
  "about": "(Novartis AG, 2020)",
  "data": [
    {"molecular_target": "Polycomb protein EED (Homo sapiens, UniProt O75530)", "sequence (O75530 whole entry)": "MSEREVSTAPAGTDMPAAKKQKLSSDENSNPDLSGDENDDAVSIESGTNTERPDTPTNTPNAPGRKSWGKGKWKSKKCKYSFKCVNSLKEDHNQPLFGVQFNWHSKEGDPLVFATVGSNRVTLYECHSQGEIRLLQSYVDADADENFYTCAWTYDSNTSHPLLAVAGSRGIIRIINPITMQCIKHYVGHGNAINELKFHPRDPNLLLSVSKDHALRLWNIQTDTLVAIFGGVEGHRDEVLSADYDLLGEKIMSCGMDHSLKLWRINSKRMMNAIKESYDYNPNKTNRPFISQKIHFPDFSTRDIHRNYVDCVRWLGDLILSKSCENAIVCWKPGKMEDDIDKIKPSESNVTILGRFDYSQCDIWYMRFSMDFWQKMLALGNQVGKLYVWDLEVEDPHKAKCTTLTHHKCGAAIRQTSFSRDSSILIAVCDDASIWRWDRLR", "test": "EED-H3K27Me3 Peptide Competition Binding Assay by AlphaScreen", "protocol": "Then 4 μL of detection beads mix was added to the plate and incubate in the dark at the rt for 1 h. The final concentration of donor and acceptor beads was 10 μg/mL for each. […] The data were then fit to a dose response equation using the program Helios (Novartis) to get the IC50 values. […] Compounds were diluted as described in the preceding section, and the assay was performed by adding 12 μL of 10 nM biotin-miniPEG-His6 peptide in the above buffer and incubating for 20 min at rt prior to addition of the beads to 10 μg/mL each. The plates were then incubated for 1 h at rt in dark before being read on EnVison.", "units": {"IC50": "nM"}, "values": [
      {"smiles": "CCN1CCN(c2ccc(-c3cnc(NCc4c(F)ccc5c4CCO5)n4cnc(C#N)c34)cn2)CC1", "note": "[US10676479, Example 81]", "IC50": 24.9},
      {"smiles": "Cc1ncccc1-c1cnc(NCc2c(F)ccc3c2CCO3)n2cnc(C(=O)NC3COC3)c12", "note": "[US10676479, Example 106]", "IC50": 7},
      {"smiles": "CS(=O)(=O)c1ccc(-c2cnc(NCc3c(F)ccc4c3CCO4)n3cnc(-c4ccccc4)c23)cc1", "note": "[US10676479, Example 110]", "IC50": 8.1}
    ]}
  ]
}
